Assay results: PubChem BioAssay (NCI)
Where “and” joins values, the source holds several entries; their conditions need not be identical. Equal entries are not always repeated.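 Dose response: 5 concentrations. Exposure: 48 h. Format: 96-well plates. Endpoint: linear interpolation; highest concentration if not reached. Here, GI50 denotes the concentration required for 50% inhibition of growth. Definition used: TGI = concentration required for complete inhibition of growth.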

How the values were obtained:
Test in all cases: growth of human tumour cells (NCI), 48 h
NCI-H226 lung = tested on: NCI-H226 lung
ACHN renal = tested on: ACHN renal
SR leukemia = tested on: SR leukemia
K-562 leukemia = tested on: K-562 leukemia
NCI-H522 lung = tested on: NCI-H522 lung
SK-OV-3 ovarian = tested on: SK-OV-3 ovarian
PC-3 prostate = tested on: PC-3 prostate
U251 CNS = tested on: U251 CNS
OVCAR-8 ovarian = tested on: OVCAR-8 ovarian
A498 renal = tested on: A498 renal

Row | SMILES | TGI (NCI-H226 lung) | TGI (ACHN renal) | TGI (SR leukemia) | TGI (K-562 leukemia) | TGI (NCI-H522 lung) | TGI (SK-OV-3 ovarian) | TGI (PC-3 prostate) | TGI (U251 CNS) | TGI (OVCAR-8 ovarian) | TGI (A498 renal) | GI50 (NCI-H226 lung) | GI50 (ACHN renal) | GI50 (SR leukemia) | GI50 (K-562 leukemia) | GI50 (NCI-H522 lung) | GI50 (SK-OV-3 ovarian) | GI50 (PC-3 prostate) | GI50 (U251 CNS) | GI50 (OVCAR-8 ovarian) | GI50 (A498 renal)
1 | C=C(c1nc2ccc(Cl)cc2[nH]c1=O)C(O)c1ccc(C(O)C(=O)c2nc3ccc(Cl)cc3[nH]c2=O)cc1 (stereo not given) | > 100 µM | > 100 µM | > 100 µM | > 100 µM | > 100 µM | > 100 µM | > 100 µM | > 100 µM | > 100 µM | > 100 µM | – | – | – | – | – | – | – | – | – | –
2 | COc1ccc2c(c1)CCCC(Br)C2=O (stereo not given) | 5.92 µM | 20.7 µM | 24.6 µM | 18.7 µM | 0.837 µM | 14.3 µM | 16.7 µM | 29.6 µM | > 31.9 µM | 36.4 µM | – | – | – | – | – | – | – | – | – | –
3 | [Cl][Hg][c]1cc(Br)cc(Br)c1 | 8.84 µM | 14.8 µM | 3.52 µM | 3.81 µM | 2.27 µM | 13 µM | 7.2 µM | 1.67 µM | 7.64 µM | 8.01 µM | 3.48 µM | 3.83 µM | 0.866 µM | 1.12 µM | 0.493 µM | 4.07 µM | 2.16 µM | 0.441 µM | 2.78 µM | 2.64 µM
4 | COc1ccc(/C=C(/C(=O)N2CCN(c3ccccc3)CC2)c2cc(OC)c(OC)c(OC)c2)cc1O | > 100 µM | > 100 µM | 58.4 µM | > 100 µM | 0.594 µM | > 100 µM | > 100 µM | > 100 µM | > 100 µM | 1.92 µM | 60.9 µM | 0.457 µM | 0.381 µM | 0.296 µM | 0.128 µM | 0.586 µM | 0.58 µM | 0.445 µM | 0.419 µM | 0.211 µM
5 | OC[C@H]1C[C@](O)(c2ccc(Cl)cc2)[C@@H](c2ccc(Cl)cc2)O1 | 72.8 µM | 97.3 µM | 16.8 µM | 76.5 µM | 52.9 µM | > 100 µM | 57.5 µM | 69.5 µM | 91.7 µM | 57.3 µM | 26.4 µM | 28 µM | 0.202 µM | 24.9 µM | 26 µM | 39.4 µM | 19.8 µM | 24.8 µM | 31.2 µM | 24.6 µM
6 | Cc1ccc(C)c(C2=C(c3cn(C)c4ccccc34)C(=O)NC2=O)c1 | > 25 µM | > 25 µM | > 21 µM | > 25 µM | > 25 µM | > 25 µM | > 25 µM | > 25 µM | > 25 µM | > 22.8 µM | > 25 µM | 9.15 µM | 5.05 µM | 15.1 µM | > 25 µM | 15.1 µM | 13.8 µM | > 25 µM | > 24.2 µM | > 12.1 µM
7 | CCn1c(-c2nonc2N)nc2c(C#CC(C)(C)O)nc(OC[C@H](N)c3ccccc3)cc21 | 15.8 µM | 5.78 µM | 16.3 µM | 14 µM | 8.63 µM | 5.71 µM | 8.87 µM | 6.67 µM | 9.44 µM | 7.63 µM | 11.9 µM | 2.6 µM | 6.24 µM | 5.09 µM | 4.47 µM | 1.56 µM | 3.92 µM | 3.21 µM | 4.21 µM | 0.157 µM
8 | O=C(O)C1C2C=CC(O2)C1C(=O)NCc1ccccn1 (stereo not given) | > 100 µM | > 100 µM | > 100 µM | > 100 µM | > 100 µM | > 100 µM | > 100 µM | > 100 µM | > 100 µM | > 100 µM | – | – | – | – | – | – | – | – | – | –
9 | N#CC(=C1C=CC(=NO)C=C1)c1ccccc1 | 7.47 µM | 10.1 µM | 3.73 µM | 13.2 µM | 4.68 µM | > 65 µM | 17 µM | 8.72 µM | 12.3 µM | 22.8 µM | 2.35 µM | 1.14 µM | 0.349 µM | 1.85 µM | 1.02 µM | 5.75 µM | 0.671 µM | 1.45 µM | 2.71 µM | 5.33 µM
10 | O=C(Nc1nc2ccc(C(F)(F)F)cc2s1)c1cc(Cl)ccc1O | 11.4 µM | > 100 µM | 20.1 µM | > 100 µM | 2.08 µM | 4.77 µM | 11.9 µM | 26.9 µM | > 100 µM | 2.26 µM | 1.23 µM | 0.894 µM | 1.24 µM | 0.351 µM | 0.278 µM | 0.497 µM | 0.318 µM | 1.44 µM | 1.12 µM | 0.309 µM
11 | CCN(CC)CCCC(CNc1ccnc2cc(Cl)ccc12)c1ccc(Cl)cc1 (stereo not given) | 5.81 µM and 8.83 µM | 2.89 µM and 2.07 µM | 1.38 µM and 1.09 µM | 0.994 µM and 0.603 µM | 3.51 µM and 2.55 µM | 4.04 µM and 3.81 µM | 13.2 µM and 10.2 µM | 3.01 µM and 2.48 µM | 7.61 µM and 3.99 µM | 3.33 µM and 2.8 µM | 2.14 µM and 2.55 µM | 1.31 µM and 0.705 µM | 0.337 µM and 0.307 µM | 0.289 µM and 0.227 µM | 1.69 µM and 0.859 µM | 2 µM and 1.82 µM | 3.51 µM and 2.45 µM | 1.54 µM and 0.95 µM | 2.61 µM and 1.57 µM | 1.83 µM and 1.35 µM
12 | C=C1C(=O)OC2CCN3CC=C(COC(=O)C(C)(O)C4(CO4)C1C)C23 (stereo not given) | > 100 µM | > 100 µM | > 100 µM | > 100 µM | > 100 µM | > 100 µM | > 100 µM | > 100 µM | > 100 µM | > 100 µM | – | – | – | – | – | – | – | – | – | –
